# Article PMC6422671 (British Journal of Clinical Pharmacology, 2019)
# Experiment: Clinical laboratory findings: chemistry; data mean (standard deviation)
# Format: in vivo, healthy men
# Source text: Data are mean (standard deviation).
smiles,measurement,setting,value
C[C@@H](N)c1cc(Cl)ccc1Cn1c(=S)[nH]c(=O)c2[nH]ccc21 [AZD4831],ALP,"5 mg fasted, 24 h",0.997 (0.210) µkat L^–1
same,ALT,"5 mg fasted, 24 h",0.397 (0.159) µkat L^–1
same,AST,"5 mg fasted, 24 h",0.370 (0.103) µkat L^–1
same,Albumin,"5 mg fasted, 24 h",42.6 (2.4) g L^–1
same,Bilirubin,"5 mg fasted, 24 h",12.3 (2.6) µmol L^–1
same,CRP,"5 mg fasted, 24 h",0.38 (0.22) mg L^–1
same,Calcium,"5 mg fasted, 24 h",2.36 (0.04) mmol L^–1
same,Creatinine,"5 mg fasted, 24 h",82.2 (10.3) µmol L^–1
same,GGT,"5 mg fasted, 24 h",0.288 (0.103) µkat L^–1
same,Glucose,"5 mg fasted, 24 h",4.69 (0.32) mmol L^–1
same,Phosphate,"5 mg fasted, 24 h",1.12 (0.09) mmol L^–1
same,Potassium,"5 mg fasted, 24 h",4.14 (0.23) mmol L^–1
same,Sodium,"5 mg fasted, 24 h",136.3 (0.8) mmol L^–1
same,Urea,"5 mg fasted, 24 h",4.66 (0.90) mmol L^–1
same,ALP,"5 mg fasted, 48 h",0.989 (0.186) µkat L^–1
same,ALT,"5 mg fasted, 48 h",0.405 (0.142) µkat L^–1
same,AST,"5 mg fasted, 48 h",0.357 (0.077) µkat L^–1
same,Albumin,"5 mg fasted, 48 h",43.3 (2.1) g L^–1
same,Bilirubin,"5 mg fasted, 48 h",10.6 (2.3) µmol L^–1
same,CRP,"5 mg fasted, 48 h",0.48 (0.40) mg L^–1
same,Calcium,"5 mg fasted, 48 h",2.38 (0.04) mmol L^–1
same,Creatinine,"5 mg fasted, 48 h",80.9 (4.7) µmol L^–1
same,GGT,"5 mg fasted, 48 h",0.287 (0.105) µkat L^–1
same,Glucose,"5 mg fasted, 48 h",4.76 (0.32) mmol L^–1
same,Phosphate,"5 mg fasted, 48 h",0.99 (0.12) mmol L^–1
same,Potassium,"5 mg fasted, 48 h",4.23 (0.16) mmol L^–1
same,Sodium,"5 mg fasted, 48 h",137.5 (0.6) mmol L^–1
same,Urea,"5 mg fasted, 48 h",4.52 (1.08) mmol L^–1
same,ALP,"5 mg fasted, follow up",1.094 (0.227) µkat L^–1
same,ALT,"5 mg fasted, follow up",0.407 (0.063) µkat L^–1
same,AST,"5 mg fasted, follow up",0.413 (0.097) µkat L^–1
same,Albumin,"5 mg fasted, follow up",45.3 (1.3) g L^–1
same,Bilirubin,"5 mg fasted, follow up",12.5 (3.3) µmol L^–1
same,CRP,"5 mg fasted, follow up",1.27 (1.43) mg L^–1
same,Calcium,"5 mg fasted, follow up",2.42 (0.04) mmol L^–1
same,Creatinine,"5 mg fasted, follow up",84.8 (9.1) µmol L^–1
same,GFR,"5 mg fasted, follow up",98 (15) mL min^–1 1.73m^–2
same,GGT,"5 mg fasted, follow up",0.307 (0.093) µkat L^–1
same,Glucose,"5 mg fasted, follow up",4.78 (0.68) mmol L^–1
same,Phosphate,"5 mg fasted, follow up",1.11 (0.10) mmol L^–1
same,Potassium,"5 mg fasted, follow up",4.32 (0.22) mmol L^–1
same,Sodium,"5 mg fasted, follow up",138.4 (1.5) mmol L^–1
same,Urea,"5 mg fasted, follow up",4.57 (1.29) mmol L^–1
same,ALP,"15 mg fasted, 24 h",1.165 (0.364) µkat L^–1
same,ALT,"15 mg fasted, 24 h",0.475 (0.222) µkat L^–1
same,AST,"15 mg fasted, 24 h",0.394 (0.098) µkat L^–1
same,Albumin,"15 mg fasted, 24 h",43.2 (2.7) g L^–1
same,Bilirubin,"15 mg fasted, 24 h",14.5 (6.3) µmol L^–1
same,CRP,"15 mg fasted, 24 h",0.53 (0.28) mg L^–1
same,Calcium,"15 mg fasted, 24 h",2.35 (0.11) mmol L^–1
same,Creatinine,"15 mg fasted, 24 h",76.2 (10.7) µmol L^–1
same,GGT,"15 mg fasted, 24 h",0.504 (0.232) µkat L^–1
same,Glucose,"15 mg fasted, 24 h",4.57 (0.21) mmol L^–1
same,Phosphate,"15 mg fasted, 24 h",1.14 (0.14) mmol L^–1
same,Potassium,"15 mg fasted, 24 h",4.12 (0.24) mmol L^–1
same,Sodium,"15 mg fasted, 24 h",137.5 (1.0) mmol L^–1
same,Urea,"15 mg fasted, 24 h",4.35 (0.61) mmol L^–1
same,ALP,"15 mg fasted, 48 h",1.159 (0.329) µkat L^–1
same,ALT,"15 mg fasted, 48 h",0.515 (0.255) µkat L^–1
same,AST,"15 mg fasted, 48 h",0.406 (0.116) µkat L^–1
same,Albumin,"15 mg fasted, 48 h",44.2 (2.6) g L^–1
same,Bilirubin,"15 mg fasted, 48 h",13.6 (6.0) µmol L^–1
same,CRP,"15 mg fasted, 48 h",0.62 (0.40) mg L^–1
same,Calcium,"15 mg fasted, 48 h",2.37 (0.10) mmol L^–1
same,Creatinine,"15 mg fasted, 48 h",75.9 (12.3) µmol L^–1
same,GGT,"15 mg fasted, 48 h",0.501 (0.243) µkat L^–1
same,Glucose,"15 mg fasted, 48 h",4.72 (0.23) mmol L^–1
same,Phosphate,"15 mg fasted, 48 h",1.11 (0.16) mmol L^–1
same,Potassium,"15 mg fasted, 48 h",4.23 (0.25) mmol L^–1
same,Sodium,"15 mg fasted, 48 h",138.8 (0.8) mmol L^–1
same,Urea,"15 mg fasted, 48 h",4.30 (0.74) mmol L^–1
same,ALP,"15 mg fasted, follow up",1.240 (0.380) µkat L^–1
same,ALT,"15 mg fasted, follow up",0.504 (0.193) µkat L^–1
same,AST,"15 mg fasted, follow up",0.420 (0.085) µkat L^–1
same,Albumin,"15 mg fasted, follow up",45.2 (3.1) g L^–1
same,Bilirubin,"15 mg fasted, follow up",11.3 (5.5) µmol L^–1
same,CRP,"15 mg fasted, follow up",1.37 (0.47) mg L^–1
same,Calcium,"15 mg fasted, follow up",2.38 (0.14) mmol L^–1
same,Creatinine,"15 mg fasted, follow up",78.4 (9.8) µmol L^–1
same,GFR,"15 mg fasted, follow up",114 (12) mL min^–1 1.73m^–2
same,GGT,"15 mg fasted, follow up",0.534 (0.262) µkat L^–1
same,Glucose,"15 mg fasted, follow up",4.62 (0.45) mmol L^–1
same,Phosphate,"15 mg fasted, follow up",1.15 (0.08) mmol L^–1
same,Potassium,"15 mg fasted, follow up",4.39 (0.30) mmol L^–1
same,Sodium,"15 mg fasted, follow up",136.9 (1.1) mmol L^–1
same,Urea,"15 mg fasted, follow up",4.79 (1.46) mmol L^–1
same,ALP,"45 mg fasted, 24 h",1.061 (0.228) µkat L^–1
same,ALT,"45 mg fasted, 24 h",0.329 (0.098) µkat L^–1
same,AST,"45 mg fasted, 24 h",0.293 (0.069) µkat L^–1
same,Albumin,"45 mg fasted, 24 h",41.6 (2.4) g L^–1
same,Bilirubin,"45 mg fasted, 24 h",12.0 (3.5) µmol L^–1
same,CRP,"45 mg fasted, 24 h",0.77 (0.71) mg L^–1
same,Calcium,"45 mg fasted, 24 h",2.34 (0.05) mmol L^–1
same,Creatinine,"45 mg fasted, 24 h",75.8 (7.2) µmol L^–1
same,GGT,"45 mg fasted, 24 h",0.315 (0.072) µkat L^–1
same,Glucose,"45 mg fasted, 24 h",4.90 (0.29) mmol L^–1
same,Phosphate,"45 mg fasted, 24 h",1.17 (0.08) mmol L^–1
same,Potassium,"45 mg fasted, 24 h",4.29 (0.10) mmol L^–1
same,Sodium,"45 mg fasted, 24 h",139.2 (1.7) mmol L^–1
same,Urea,"45 mg fasted, 24 h",4.25 (0.47) mmol L^–1
same,ALP,"45 mg fasted, 48 h",1.097 (0.257) µkat L^–1
same,ALT,"45 mg fasted, 48 h",0.319 (0.095) µkat L^–1
same,AST,"45 mg fasted, 48 h",0.288 (0.074) µkat L^–1
same,Albumin,"45 mg fasted, 48 h",42.5 (2.7) g L^–1
same,Bilirubin,"45 mg fasted, 48 h",12.3 (3.3) µmol L^–1
same,CRP,"45 mg fasted, 48 h",0.58 (0.49) mg L^–1
same,Calcium,"45 mg fasted, 48 h",2.34 (0.05) mmol L^–1
same,Creatinine,"45 mg fasted, 48 h",73.2 (6.4) µmol L^–1
same,GGT,"45 mg fasted, 48 h",0.312 (0.064) µkat L^–1
same,Glucose,"45 mg fasted, 48 h",5.06 (0.19) mmol L^–1
same,Phosphate,"45 mg fasted, 48 h",1.12 (0.09) mmol L^–1
same,Potassium,"45 mg fasted, 48 h",4.18 (0.20) mmol L^–1
same,Sodium,"45 mg fasted, 48 h",140.9 (2.2) mmol L^–1
same,Urea,"45 mg fasted, 48 h",4.24 (0.55) mmol L^–1
same,ALP,"45 mg fasted, follow up",1.165 (0.282) µkat L^–1
same,ALT,"45 mg fasted, follow up",0.324 (0.059) µkat L^–1
same,AST,"45 mg fasted, follow up",0.356 (0.054) µkat L^–1
same,Albumin,"45 mg fasted, follow up",44.1 (2.6) g L^–1
same,Bilirubin,"45 mg fasted, follow up",12.9 (5.6) µmol L^–1
same,CRP,"45 mg fasted, follow up",2.89 (5.30) mg L^–1
same,Calcium,"45 mg fasted, follow up",2.35 (0.04) mmol L^–1
same,Creatinine,"45 mg fasted, follow up",74.6 (9.2) µmol L^–1
same,GFR,"45 mg fasted, follow up",112 (12) mL min^–1 1.73m^–2
same,GGT,"45 mg fasted, follow up",0.300 (0.052) µkat L^–1
same,Glucose,"45 mg fasted, follow up",4.84 (0.54) mmol L^–1
same,Phosphate,"45 mg fasted, follow up",1.12 (0.20) mmol L^–1
same,Potassium,"45 mg fasted, follow up",4.18 (0.18) mmol L^–1
same,Sodium,"45 mg fasted, follow up",139.5 (1.3) mmol L^–1
same,Urea,"45 mg fasted, follow up",3.90 (0.63) mmol L^–1
